Biological target: T1, Angiotensin-converting enzyme (Oryctolagus cuniculus, UniProt P12822)
T1 sequence (P12822 whole entry): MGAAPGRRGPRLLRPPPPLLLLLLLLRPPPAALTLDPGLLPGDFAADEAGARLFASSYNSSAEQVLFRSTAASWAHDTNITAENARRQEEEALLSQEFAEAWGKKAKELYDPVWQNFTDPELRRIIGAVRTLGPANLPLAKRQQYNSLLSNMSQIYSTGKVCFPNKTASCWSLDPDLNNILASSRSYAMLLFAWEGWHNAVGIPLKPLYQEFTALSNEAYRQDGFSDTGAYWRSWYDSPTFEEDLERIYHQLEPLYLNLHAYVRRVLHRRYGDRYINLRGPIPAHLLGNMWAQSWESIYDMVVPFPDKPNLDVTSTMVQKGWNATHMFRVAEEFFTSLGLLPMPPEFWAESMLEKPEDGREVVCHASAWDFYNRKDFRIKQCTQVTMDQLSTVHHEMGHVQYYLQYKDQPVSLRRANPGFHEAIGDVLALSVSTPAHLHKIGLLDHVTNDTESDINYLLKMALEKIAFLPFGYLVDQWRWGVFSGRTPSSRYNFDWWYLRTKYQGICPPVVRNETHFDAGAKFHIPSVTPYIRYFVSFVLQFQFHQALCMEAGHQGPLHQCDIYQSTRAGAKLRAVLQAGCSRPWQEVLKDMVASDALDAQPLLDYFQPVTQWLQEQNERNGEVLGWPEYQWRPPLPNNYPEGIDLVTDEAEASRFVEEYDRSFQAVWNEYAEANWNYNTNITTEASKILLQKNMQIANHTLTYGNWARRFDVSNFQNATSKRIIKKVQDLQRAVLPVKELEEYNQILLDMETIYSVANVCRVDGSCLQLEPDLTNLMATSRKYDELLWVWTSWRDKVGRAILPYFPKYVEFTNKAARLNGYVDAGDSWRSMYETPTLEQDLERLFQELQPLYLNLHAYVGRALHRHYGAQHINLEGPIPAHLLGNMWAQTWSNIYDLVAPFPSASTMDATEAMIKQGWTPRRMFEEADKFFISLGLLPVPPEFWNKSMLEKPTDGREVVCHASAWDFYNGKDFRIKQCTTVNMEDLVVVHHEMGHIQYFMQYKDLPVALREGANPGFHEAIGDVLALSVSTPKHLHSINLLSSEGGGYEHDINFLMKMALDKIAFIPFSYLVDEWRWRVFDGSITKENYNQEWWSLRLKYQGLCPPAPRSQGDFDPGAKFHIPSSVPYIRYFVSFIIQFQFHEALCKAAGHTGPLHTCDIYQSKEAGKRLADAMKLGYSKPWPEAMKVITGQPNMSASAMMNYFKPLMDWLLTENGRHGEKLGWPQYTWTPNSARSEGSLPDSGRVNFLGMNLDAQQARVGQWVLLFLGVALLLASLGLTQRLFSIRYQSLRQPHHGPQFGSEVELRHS
Assay: Inhibitory activity of compound against angiotensin I converting enzyme was determined

Q: For `C[C@@H](C[Si](O)(O)[C@@H](Cc1ccccc1)NC(=O)c1ccccc1)C(=O)N1CCC[C@H]1C(=O)O`, which IC50 is on record?
A: 72 nM

Q: With `C[C@H](C[Si](O)(O)[C@H](Cc1ccccc1)NC(=O)c1ccccc1)C(=O)N1CCC[C@H]1C(=O)O` as the compound, how does the IC50 read?
A: 3.8 nM

Q: For `C[C@@H](C[Si](O)(O)[C@H](Cc1ccccc1)NC(=O)c1ccccc1)C(=O)N1CCC[C@H]1C(=O)O`, which IC50 is on record?
A: 207 nM

Q: For `CC(C)CC(NC(=O)c1ccccc1)[Si](O)(O)CC(C)C(=O)N1CCC[C@H]1C(=O)O` (stereo not given in full), which IC50 is on record?
A: 14 nM

Q: How did the IC50 turn out when `C[C@H](C[Si](O)(O)[C@@H](Cc1ccccc1)NC(=O)c1ccccc1)C(=O)N1CCC[C@H]1C(=O)O` was run?
A: 19 nM

— ChEMBL document CHEMBL1146757, “Silanediol peptidomimetics. Evaluation of four diastereomeric ACE inhibitors” (Bioorg Med Chem Lett, 2004)
